This note sets out measurements from PMC12447631 (Environmental science & technology, 2018).

The target in the assay is T1, MGS0156 (uncultured organism, UniProt A0A0G3FEJ8).
T1 sequence (A0A0G3FEJ8 75-421): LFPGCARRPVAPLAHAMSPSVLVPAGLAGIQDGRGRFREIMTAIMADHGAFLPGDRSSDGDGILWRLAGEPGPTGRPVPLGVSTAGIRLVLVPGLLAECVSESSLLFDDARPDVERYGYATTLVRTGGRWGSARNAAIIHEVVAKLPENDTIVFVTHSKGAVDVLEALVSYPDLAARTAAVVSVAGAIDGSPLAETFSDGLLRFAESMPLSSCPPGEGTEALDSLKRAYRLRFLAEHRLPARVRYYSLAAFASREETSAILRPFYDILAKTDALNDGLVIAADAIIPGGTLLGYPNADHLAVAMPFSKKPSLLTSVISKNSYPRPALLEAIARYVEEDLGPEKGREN
Briefly: spectrophotometric pNP ester hydrolysis. The format is biochemical. To be noted: 0.5 mM substrate, 50 mM HEPES-K pH 8.0, 30 °C.

Consider `CCCCCCCC(=O)Oc1ccc([N+](=O)[O-])cc1` [pNP-octanoate], for which the specific activity entry was “MGS0156 was most active against pNP -octanoate and pNP -decanoate (C8–C10 substrates)”.
